# Measurements taken from patent US5317019A, “Inhibition of interleukin-1 and tumor necrosis factor production by monocytes and/or macrophages” (priority 1991, dated 1994).
# System: TNF production by human monocytes
# Test: In vitro TNF production by LPS-stimulated human monocytes (ELISA)
# Type: cell-based
# Conditions: Homo sapiens, Monocyte; Table B; LPS 50 ng/ml, 24 h; read-out: IC50, LPS induced TNF human monocyte data
# Description: The effects of the compounds enumerated above on the in vitro production of TNF by human monocytes was examined using the following protocol.
# Bacterial lipopolysaccharide (LPS) was used to induce TNF production by human peripheral blood monocytes. TNF activity was measured by a modification of Winston et al., ELISA, described below. […] The cells were allowed to adhere for 2 hours, after which time non-adherent cells were removed by gentle washing. […] At the end of the incubation period, culture supernatants were removed and clarified of cells and all debris. Culture supernatants were immediately assayed for TNF levels in the manner described below.
# The Elisa employes a murine monoclonal anti-human TNF antibody, described below, as the capture antibody and a polyclonal rabbit anti-human TNF, described below, as the second antibody. […] TNF levels in samples were calculated from a standard curve genereated with recombinant human TNF produced in E. Coli (obtained from SmithKIine Beecham Pharmaceuticals, King of Prussia, Pa., USA).
# Polyclonal rabbit anti-human TNF antibodies were prepared by repeated immunization of New Zeland White (NZW) rabbits with recombinant human TNF emulsified in complete Freund's adjuvant (DEFCO, Ill., USA).
row,Compound,IC50 [nM]
1,"COc1ccc(-c2nc3n(c2-c2ccncc2)CCC3=O)cc1 [Compound E, 2-(4-Methoxyphenyl)-3-(4-pyridyl)-7-oxo-5,6-dihydro-7-H-pyrrolo-[1,2-a]imidazole]",1000
2,"O=S1(=O)CCn2c1nc(-c1ccc(F)cc1)c2-c1ccncc1 [Compound J, 6-(4-Fluorophenyl)-5-(4-pyridyl)-2,3-dihydroimidazo[2,1-b]thiazole-1,1-dioxide]",9000
3,"COc1ccc(-c2nc3n(c2-c2ccncc2)CCC3O)cc1 (stereo not drawn) [Compound F, 5,6-dihydro-2-(4-methoxyphenyl)-3-(4-pyridinyl)-[7H]-pyrrolo[1,2-a]-imidazole-7-ol]",1000
4,"CC(=O)OCSc1ccc(-c2nc3n(c2-c2ccncc2)CCC3)cc1 [Compound 10, 2-(4-acetoxymethylthiophenyl)-3-(4-pyridyl)-6,7-dihydro-[5H]-pyrrolo-[1,2-a]-imidazole]",3000
5,"[O-][S+]1CCn2c1nc(-c1ccc(F)cc1)c2-c1ccncc1 (stereo not drawn) [Compound I, 6-(4-Fluorophenyl)-5-(4'-pyridyl)-2,3-dihydroimidazo[2,1-b]thiazole-1-oxide]",200

# Next, values leading:
row,IC50 [nM],Compound
1,500,"COc1ccc(-c2nc3n(c2-c2ccncc2)CCC3)cc1 [Compound 24, 2-(4-Methoxyphenyl)-3-(4-pyridyl)-6,7-dihydro-[5H]-pyrrolo-[1,2-a]-imidazole]"
2,200,"Fc1ccc(-c2nc3n(c2-c2ccncc2)CCC3)cc1 [Compound M, 2-(4-Fluorophenyl)-3-(4-pyridyl)-6,7-dihydro-[5H]-pyrrolo-[1,2-a]-imidazole]"
3,1000,"Fc1ccc(-c2c(-c3ccncc3)nc3n2CCC3)cc1 [Compound N, 3-(4-Fluorophenyl)-2-(4-pyridyl)-6,7-dihydro-[5H]-pyrrolo-[1,2-a]-imidazole]"

# Same assay, conditions: Table B; LPS 50 ng/ml, 24 h; read-out: IC50, LPS induced TNF human monocyte data
row,Compound,IC50 [nM]
1,"2-phenyl-3-pyridyl-6,7-dihydro-[5H]-pyrrolo[1,2-a]imidazole [Compound C]",800
2,"2-p-bromophenyl-3-pyridyl-6,7-dihydro-[5H]-pyrrolo-[1,2-a]-imidazole [Compound D]",1000

# System: endotoxin shock in mice
# Test: In vivo endotoxin shock models (P. acnes and/or LPS-GAL)
# Set-up: species or system mouse (C57BL/6)
# Conditions: one or both in vivo models
# Source text: Two models of endotoxin shock have been utilized to determine in vivo TNF activity and are described below. The actual protocol used in the models is described in Utility Model Examples A and B set out below, i.e. P. acnes model and LPS-GAL model.
# The protocol used to test the compound of the method of the subject invention was essentially as has been described in Galanos et al., Proc. Nat'l Acad. Sci USA, 76:5939-43 (1979) whose disclosure is herein incorporated by reference. Briefly, D-gal […] sensitizes various strains of mice to the lethal effects of endotoxin. The administration of D-gal (300-500 mg/kg) intravenously (i.v.) sensitizes the mice to doses of Lipopolysaccharide(LPS ) as low as 0.1 mg. Briefly, male C57BL/6 mice, obtained from Charles River Laboratories (Stone Ridge, N.Y., USA) of 6-12 weeks of age were injected i.v. with 0.1 mg of LPS from Salmonella typhosa (Difco Laboratories, Detroit, Mich., USA) admixed with D(+)-gal (Sigma; 500 mg/kg) in 0.20-0.25 ml pyrogen-free saline. Compounds to be tested were administered at various times prior to or following the i.v. injection of LPS/D-gal. In this model, the control animals usually die 5-6 hr. following the injection of LPS, although on occasion deaths are seen between 24 and 48 hr.
# This model is a modification of the previously described protocol for the in vivo induction of TNF as described in Haranaka et al., Cancer Immunol Immunother. 18:81-90, (1984). Treatment with Proprionibacterium Acnes (P. acnes) (1 mg/animal i.p.) renders mice susceptible to the lethal effects of LPS injected 10 days later.
# P. acnes was purchased from Burroughs Wellcome (Triangle Park, N.C., USA), and […] of the heat-killed bacteria was administered in 0.5 ml pyrogen-free saline by intraperitoneal (i.p.) injection to male C57BL/6 mice, obtained from Charles River Laboratories (Stone Ridge, N.Y., USA) of 6-12 weeks of age. Ten days later, the mice were injected i.v. with 1 mg LPS in 0.25 ml saline. Compounds to be tested were administered at various times prior to or following the injection of LPS. The survival of animals was monitored for 1 week.
# Plasma levels of TNF were measured using a modification of the basic sandwich ELISA method described in Winston et al., Current Protocols in Molecular Biology, Pg. 11.2.1, Ausubel et al., Ed. (1987) John Wiley and Sons, New York, USA. The Elisa employed a hampster monoclonal anti-mouse TNF (Genzyme, Boston, Mass., USA ) as the capture antibody and a polyclonal rabbit anti-murine TNF (Genzyme, Boston, Mass., USA ) as the detecting antibody. TNF levels in rat samples were calculated from a standard curve generated with recombinant murine TNF (Genzyme, Boston, Mass., USA). TNF levels determined by ELISA correlated with levels detected by the L929 bioassay of Ruff et. al., J. Immunol. 125:1671-1677 (1980), with 1 Unit of activity in the bioassay corresponding to 70 picograms (pg) of TNF in the ELISA. The ELISA detected levels of TNF down to 25 pg/ml.
Compound,Inhibition of in vivo TNF levels / in vivo activity,Protection from lethal effects of endotoxin shock
"O=S1(=O)CCn2c1nc(-c1ccc(F)cc1)c2-c1ccncc1 [Compound J, 6-(4-Fluorophenyl)-5-(4-pyridyl)-2,3-dihydroimidazo[2,1-b]thiazole-1,1-dioxide]",inhibited in vivo TNF levels,protected the animals from endotoxic induced shock

# System: IL-1 production by human monocytes
# Test: In vitro IL-1 production by LPS-stimulated human monocytes
# Type: cell-based
# Conditions: Homo sapiens, Monocyte; Table 1; LPS 50 ng/ml, 24 h; read-out: IC50, effect on LPS-stimulated IL-1 production by human monocytes
# Description: Bacterial lipopolysaccharide (LPS) was used to induce IL-1 production by human peripheral blood monocytes. IL-1 activity was measured by its ability to stimulate a Interleukin 2 (IL-2) producing cell line […] to secrete IL-2, in concert with A23187 ionophore, according to the method of Simon et al., J. Immunol. […] The cells were allowed to adhere for 2 hours, after which time non-adherent cells were removed by gentle washing. […] At the end of the incubation period, culture supernatants were removed and clarified of cells and all debris.
row,Compound,IC50 [nM]
1,"CSc1ccc(-c2nc3n(c2-c2ccncc2)CCS3)cc1 [Compound 11, 6-(4-methylthiophenyl)-5-(4-pyridyl)-2,3-dihydro-imidazo-[2,1-b]-thiazole]",1800
2,"c1cc(-c2nc3n(c2-c2ccc4c(c2)OCO4)CCS3)ccn1 [Compound 8, 5-(3,4-(methylenedioxy)phenyl)-6-(4-pyridyl)-2,3-dihydroimidazo-[2-1-b]-thiazole]",10000
3,"CCc1cc(-c2c(-c3ccc(SC)cc3)nc3n2CCC3)ccn1 [Compound 15, 2-(4-methylthiophenyl)-3-(4-(2-ethyl)pyridyl)-6,7-dihydro-[5H]-pyrrolo-[1,2-a-]-imidazole]",1300
4,"CC(=O)OCSc1ccc(-c2nc3n(c2-c2ccncc2)CCC3)cc1 [Compound 10, 2-(4-acetoxymethylthiophenyl)-3-(4-pyridyl)-6,7-dihydro-[5H]-pyrrolo-[1,2-a]-imidazole]",6300
5,"COc1ccc(-c2nc3ccccn3c2-c2ccncc2)cc1 [Compound 7, 2-(4-methoxyphenyl)-3-(4-pyridyl)-imidazo-[1,2-a]-pyridine]",1000
6,"CSc1ccc(-c2c(-c3ccncc3)nc3n2CCS3)cc1 [Compound 12, 5-(4-methylthiophenyl)-6-(4-pyridyl)-2,3-dihydro-imidazo-[2,1-b]-thiazole]",1800

# The next lines start with the values.
row,IC50 [nM],Compound
1,700,"COc1ccc(-c2nc3n(c2-c2ccnc(C)c2)CCC3)cc1 [Compound 9, 2-(4-methoxyphenyl)-3-(4-(2-methyl)pyridyl)-6,7-dihydro-[5H]-pyrrolo-[1,2-a]-imidazole]"
2,> 10000,"CCCSc1ccc(-c2nc3n(c2-c2ccncc2)CCC3)cc1 [Compound 14, 2-(4-propylthiophenyl)-3-(4-pyridyl)-6,7-dihydro-[5H]-pyrrolo-[1,2-a]-imidazole]"
3,2000,"CSc1ccc(-c2c(-c3ccncc3)nc3n2CCC3)cc1 [Compound 13, 3-(4-methylthiophenyl)-2-(4-pyridyl)-6,7-dihydro-[5H]-pyrrolo-[1,2-a]-imidazole]"

# Same assay, conditions: Homo sapiens, Monocyte; Table 3; read-out: IC50, inhibition of IL-1 production by LPS stimulated monocytes in vitro
row,Compound,IC50 [nM]
1,"c1cc(-c2c(-c3ccc(SSc4ccc(-c5nc6n(c5-c5ccncc5)CCC6)cc4)cc3)nc3n2CCC3)ccn1 [Compound 23, 2-(4-Mercaptophenyl)-3-(4-pyridyl)-6,7-dihydro-[5H]-pyrrolo-[1,2-a]-imidazole disulfide]",5900
2,"COc1ccc(-c2c(-c3ccncc3)nc3n2CCS3)cc1 [Compound 26, 5-(4-Methoxyphenyl)-6-(4-pyridyl)-2,3-dihydroimidazole-[2,1-b]-thiazole]",≥ 10000
3,"COc1ccc(-c2nc3n(c2-c2ccncc2)CCS3)cc1 [Compound 25, 6-(4-Methoxyphenyl)-5-(4-pyridyl)-2,3-dihydroimidazo-[2,1-b]-thiazole]",3000

# Continued, values first:
row,IC50 [nM],Compound
1,100,"COc1ccc(-c2nc3n(c2-c2ccncc2)CCC3)cc1 [Compound 24, 2-(4-Methoxyphenyl)-3-(4-pyridyl)-6,7-dihydro-[5H]-pyrrolo-[1,2-a]-imidazole]"
2,700,"Brc1ccc(-c2nc3n(c2-c2ccncc2)CCC3)cc1 [Compound 27, 2-(4-Bromophenyl)-3-(4-pyridyl)-6,7-dihydro-[5H]-pyrrolo-[1,2-a]-imidazole]"
3,> 10000,"CC(C)Oc1ccc(-c2nc3n(c2-c2ccncc2)CCC3)cc1 [Compound 17, 2-(4-(2-Propoxy)phenyl)-3-(4-pyridyl)-6,7-dihydro-[5H]-pyrrolo-[1,2-a]-imidazole]"
4,500,"c1ccc(-c2nc3n(c2-c2ccncc2)CCC3)cc1 [Compound 22, 2-Phenyl-3-(4-pyridyl)-6,7-dihydro-[5H]-pyrrolo-[1,2-a]imidazole]"
5,10000,"CCOc1ccc(-c2nc3n(c2-c2ccncc2)CCC3)cc1 [Compound 18, 2-(4-(1-Ethoxy)phenyl)-3-(4-pyridyl)-6,7-dihydro[5H]pyrrolo-[1,2-a]-imidazole]"
6,> 10000,"CCCOc1ccc(-c2nc3n(c2-c2ccncc2)CCC3)cc1 [Compound 19, 2-(4-(1-Propoxy)phenyl)-3-(4-pyridyl)-6,7-dihydro[5H]pyrrolo-[1,2-a]-imidazole]"

# Same assay, conditions: Table 3; read-out: IC50, inhibition of IL-1 production by LPS stimulated monocytes in vitro
row,Compound,IC50 [nM]
1,"COc1ccc(-c2c(-c3ccncc3)n3c([n+]2C)CCC3)cc1 [Compound 21, 2-(4-Methoxyphenyl)-3-(4-pyridyl)-6,7-dihydro-[5H]-pyrrolo-[1,2-a]-N-methylimidazole, monomethylsulfate]",> 10000
2,"2-[Trimethylacetyl(thiophenyl)]-3-(4-pyridyl)-6,7-dihydro[5H]pyrrolo-[1,2-a]-imidazole [Compound 16]",> 10000
3,"2-(Acetyl-thio-phenyl)-3-(4-pyridyl)-6,7-dihydro[5H]-pyrrolo-[1,2-a]-imidazole [Compound 20]",> 10000
